The supplement of paper PMC10820928
± gives the standard deviation of the averaged measurements.

Test system: Danio rerio embryo
Test: benchmark concentration, MalformedAny+Mort@120 (percent of embryos dead or malformed at 120 hpf); higher = less toxic
Conditions: exposure window: 4-6 to 120 hpf
Protocol: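 Single zebrafish embryos in 96-well plates (200 µL; 0.5% DMSO vehicle) were exposed from about 4–6 hpf to 120 hpf at 7 or more concentrations up to 100 µM or the solubility limit, one plate per replicate. Each lab used its in-house protocol: Lab A used AB embryos in E3 with chorion on and daily renewal; Lab B used Tropical 5D embryos in E2, dechorionated, static; Lab C used AB embryos in E3 with chorion on, static. The percentage of dead or malformed embryos at 120 hpf was fitted per plate (positive control: per week) by bootstrap Curvep to give a benchmark concentration (BMC); inactive substances are set to the highest tested concentration, BMCs at the lowest tested concentration are floors.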

[1] = laboratory protocol: Lab A: static renewal, chorionated (SR-C), AB strain, E3
[2] = laboratory protocol: Lab B: static, dechorionated (S-DC), Tropical 5D strain, E2
[3] = laboratory protocol: Lab C: static, chorionated (S-C), AB strain, E3

SMILES | benchmark concentration [1] | benchmark concentration [2] | benchmark concentration [3]
Oc1c(Cl)c(Cl)c(Cl)c(Cl)c1Cl [Pentachlorophenol] | 0.257 ± 0.15 µM | < 1 µM | 0.818 ± 0.49 µM
CCOP(=S)(OCC)SCSCC [Phorate] | 2.53 ± 1.7 µM | > 100 µM | 
CN(C)C(=S)[S-].CN(C)C(=S)[S-].[Zn+2] [Ziram] |  | < 1 µM | 
NC(=O)NO [Hydroxyurea] | > 100 µM | > 100 µM | 
C=C(C)[C@H]1Cc2c(ccc3c2O[C@@H]2COc4cc(OC)c(OC)cc4[C@@H]2C3=O)O1 [Rotenone] |  | < 1 µM | 0.194 ± 0.15 µM
CNC(=O)O/N=C/C(C)(C)SC [Aldicarb] | 0.926 ± 0.4 µM | 2.27 ± 0.83 µM | 1.94 ± 0.48 µM
O=P(OC(CCl)CCl)(OC(CCl)CCl)OC(CCl)CCl [Tris(1,3-dichloro-2-propyl) phosphate] | 2.2 ± 0.24 µM | 6.94 ± 2.6 µM | 15.9 ± 3.1 µM
CC(COc1ccc(Oc2ccccc2)cc1)Oc1ccccn1 (stereo not drawn) [Pyriproxyfen] | 4.41 ± 1.7 µM | 65.4 ± 16 µM | 
CCNc1nc(Cl)nc(NC(C)C)n1 [Atrazine] | 49 ± 5.9 µM | > 100 µM | > 100 µM
C[Si](Cn1cncn1)(c1ccc(F)cc1)c1ccc(F)cc1 [Flusilazole] | 1.41 ± 0.027 µM | 6.04 ± 1.4 µM | 11.6 ± 5.1 µM
CCOP(=O)(OCC)Oc1nc(Cl)c(Cl)cc1Cl [Chlorpyrifos oxon] |  | 1.69 ± 0.43 µM | 0.2 ± 0.14 µM
c1cc2ccc3cccc4ccc(c1)c2c34 [Pyrene] | 3.81 ± 1.2 µM | 50.5 ± 25 µM | 
CC=O [Acetaldehyde] | > 100 µM | > 100 µM | > 100 µM
CCC[CH2][Sn]([CH2]CCC)([CH2]CCC)[O][Sn]([CH2]CCC)([CH2]CCC)[CH2]CCC [Bis(tributyltin)oxide] | 0.0463 ± 0.0031 µM |  | 1.08 ± 0.52 µM
Oc1cc(Cl)ccc1Oc1ccc(Cl)cc1Cl [Triclosan] | 1.2 ± 0.34 µM | 3.62 ± 0.7 µM | 7.86 ± 5.5 µM
CC(C)(C)C(=O)C(Oc1ccc(Cl)cc1)n1cncn1 (stereo not drawn) [Triadimefon] | 1.51 ± 0.11 µM | 7.61 ± 4.6 µM | 6.93 ± 6.8 µM
O=C1CCC(N2C(=O)c3ccccc3C2=O)C(=O)N1 (stereo not drawn) [Thalidomide] | > 100 µM | > 100 µM | 
O=P(Oc1ccccc1)(Oc1ccccc1)Oc1ccccc1 [Triphenyl phosphate] | 0.879 ± 0.45 µM | 4.35 ± 0.61 µM | 30 ± 15 µM
CC(C)(c1cc(Br)c(O)c(Br)c1)c1cc(Br)c(O)c(Br)c1 [3,3',5,5'-Tetrabromobisphenol A] | 1.39 µM | 2.97 ± 0.81 µM | 4.25 ± 0.23 µM

SMILES | benchmark concentration [1] | benchmark concentration [2] | benchmark concentration [3]
CC[C@H](C)[C@H]1O[C@]2(C=C[C@@H]1C)C[C@@H]1C[C@@H](C/C=C(\C)[C@@H](O[C@H]3C[C@H](OC)[C@@H](O[C@H]4C[C@H](OC)[C@@H](O)[C@H](C)O4)[C@H](C)O3)[C@@H](C)/C=C/C=C3\CO[C@@H]4[C@H](O)C(C)=C[C@@H](C(=O)O1)[C@]34O)O2.CO[C@H]1C[C@H](O[C@H]2[C@H](C)O[C@@H](O[C@@H]3/C(C)=C/C[C@@H]4C[C@@H](C[C@]5(C=C[C@H](C)[C@@H](C(C)C)O5)O4)OC(=O)[C@@H]4C=C(C)[C@@H](O)[C@H]5OC/C(=C\C=C\[C@@H]3C)[C@]54O)C[C@@H]2OC)O[C@@H](C)[C@@H]1O [Abamectin] |  |  | 0.436 ± 0.24 µM
CCOP(=S)(OCC)Oc1nc(Cl)c(Cl)cc1Cl [Chlorpyrifos] | 0.879 ± 0.45 µM | 63.7 ± 35 µM | 45.7 µM
CCCC(CCC)C(=O)O [Valproic acid] |  |  | 6 ± 7.4 µM
Cl[C@H]1[C@H](Cl)[C@@H](Cl)[C@@H](Cl)[C@H](Cl)[C@H]1Cl [Lindane] | 1.24 ± 0.5 µM | 35.6 ± 6.7 µM | 9.25 ± 4.2 µM
c1ccc2c(c1)ccc1cc3c(ccc4ccccc43)cc12 [Dibenz(a,h)anthracene] |  | > 64 µM | > 100 µM
CC(C)NC(=O)N1CC(=O)N(c2cc(Cl)cc(Cl)c2)C1=O [Iprodione] | 11.7 ± 3.8 µM | 62.3 ± 23 µM | 35.7 ± 18 µM
CC(C)(C)[C@H](O)[C@H](Cc1ccc(Cl)cc1)n1cncn1 (racemic) [Paclobutrazol] | 0.339 ± 0.16 µM |  | 23.1 ± 21 µM
CCCCOC(=O)c1ccccc1C(=O)OCCCC [Dibutyl phthalate] | 1.28 ± 0.24 µM | 4.16 ± 0.31 µM | 38.2 ± 13 µM
CC(=O)Oc1ccccc1C(=O)O [Aspirin] |  | > 100 µM | 24.6 ± 18 µM
CC(C)(c1ccc(O)cc1)c1ccc(O)cc1 [Bisphenol A] | 13 ± 2.4 µM | 38.5 ± 2.8 µM | 21.8 ± 12 µM
CON(C)C(=O)Nc1ccc(Cl)c(Cl)c1 [Linuron] | 4.78 ± 0.21 µM | 19.5 ± 9.7 µM | 29.7 ± 14 µM
Cn1c(=O)c2c(ncn2C)n(C)c1=O [Caffeine] | > 100 µM | > 100 µM | 
CC(C)c1cccc(C(C)C)c1O [Propofol] | 0.502 ± 0.076 µM | > 100 µM | 
CCCc1cc(=O)[nH]c(=S)[nH]1 [6-Propyl-2-thiouracil] | > 100 µM | > 100 µM | 
CC/C(=C(/CC)c1ccc(O)cc1)c1ccc(O)cc1 [Diethylstilbestrol] | 0.547 ± 0.03 µM | 3.07 ± 0.69 µM | 3.37 ± 1.3 µM
CCCCOC(=O)C(C)Oc1ccc(Oc2ccc(C(F)(F)F)cn2)cc1 (stereo not drawn) [Fluazifop-butyl] | 2.6 ± 1.5 µM | 3.5 ± 1 µM | 53.8 ± 10 µM
CCCC(CCC)C(=O)O [Sodium valproate] |  | > 100 µM | 4.12 µM
Oc1cccc(O)c1 [Resorcinol] | > 100 µM | > 100 µM | > 100 µM
Nc1ccc(Cl)c(Cl)c1 [3,4-Dichloroaniline] | 7.8 ± 0.11 µM | < 2 µM | 14 ± 4.4 µM
